In test [1] the test system is IL2 activation in human PBMC. The test is described as follows: IL2 activity assay (ELISA) in human PBMC. It counts as cell-based. The conditions noted are these: CD3/CD28 antibody, 24 h. As for the experimental part:
The compound was diluted with DMSO in a dilution plate, with a maximum starting concentration of 10 μM, 8 concentration gradient points (3-fold dilution), and then added to the 96-well plate along with the addition of 5 µg/ml CD28 antibody. Incubation was performed for 24 h. • (3) The ELISA plate was washed twice with PBS, and an ELISA dilution was added at 100 µl/well. Then 100 μl of the standard and the incubated samples obtained in step 2 were added separately, and incubated for 2 h at room temperature. • (4) Each well was washed 3 times by adding with 400 μl washing buffer per well, and was finally blotted to dryness with a clean absorbent paper. • (5) 200 μl of the IL2 conjugate was added per well, covered with a fresh tape, and incubated for 2 h at room temperature. Step (4) was repeated. • (6) 200 μl of the substrate was added per well under the protection from light. The plate was incubated at room temperature for 20 min. • (7) 50 μL of a stop solution was added per well. The color of the wells should be from blue to yellow. Signals at […] were read by a microplate reader, and the signal intensity was used to characterize the activity level of IL2. EC50 values were obtained by fitting using the Prism software.
(In an ELISA, binding on a coated surface is turned into a signal by an enzyme label.)

Test [2] addresses T1, human HPK1 (Homo sapiens, UniProt Q92918). The test is described as follows: HPK1 protein degradation assay (WB) in RAMOS cell line. It is filed as cell-based. Details: The RAMOS cell line was selected as the degradation cell line; endogenous in cells; host or cells: RAMOS. The conditions noted are these: RAMOS cells, 16 h, Western blot. As for the experimental part: Degradation of HPK1 proteins and DC50/Dmax were determined by the WB method in order to evaluate the in vitro degradative ability of the compound.
The RAMOS cell line was selected as the degradation cell line. Incubation Conditions: RMPI 1640 culture medium supplemented with 10% FBS, 37° C., 5% CO2.
• (1) Plating cells: in a 6 cm dish with 4 ml of the culture medium, cells plated at 2×10^6 cells/dish. • (2) Drug addition: the compound (stock solution concentration: 10 mM) was diluted with DMSO in a dilution plate, with a maximum starting concentration of 10 μM and 7 concentration gradient points (3-fold dilution). 4 μl of each diluted solution was taken, added to a dish, and incubated for 16 h. • (3) Cells were harvested, added with a lysis buffer, and centrifuged at 12000 rpm/min for 20 min. The supernatant was collected. After quantification using a BCA quantification kit, 5× loading buffer was added to denature for 10 min. • (4) 10 μg of denatured protein was added to the SDS-PAGE gel. After electrophoresis and membrane transfer, the plate was blocked with 5% BSA for 1 h, incubate with the primary antibody at 4° C. overnight. After washing off the primary antibody, the secondary antibody was added, incubated at room temperature for 1 h, and washed off.
Imaging: the membranes were scanned with a two-color fluorescence imaging system.
(Immunoblotting shows a protein as a band on a membrane.)

Test [3] concerns the target T1, human HPK1. As to the kind of experiment: Assay of in vitro HPK1 enzymatic activity (ADP-Glo). Conditions: 7 nM kinase, 20 uM ATP. It counts as biochemical. As for the experimental part: Compounds were evaluated for their ability to inhibit human HPK1 by IC50 determination using the ADP-Glo method to measure the kinase activity.
Buffer conditions of the enzyme: 50 mM Hepes (pH 7.5), 10 mM MgCl2, 1 mM EGTA, 0.01% Brij35, 2 mM DTT.
Preparation of the Kinase and substrate mixture: the working concentration of the kinase in the HPK1 reaction solution was 7 nM and the working concentration of ATP was 20 uM.
The compound was diluted with DMSO in a dilution plate, with a maximum starting concentration of 1 uM and 10 concentration gradient points (4-fold dilution).
Each of the above 10 concentration gradient points of the compound was then diluted 50-fold into the kinase reaction buffer and shaken on a shaker for 20 min. The kinase was prepared in an enzyme reaction buffer and 2 μl of the HPK1 kinase was added per well of the reaction plate at a HPK1 kinase concentration of 7 nM.
1 μl of diluted compound in the buffer was added per well, and the plate was sealed with a plate sealing film, centrifuged at 1000 g for 30 seconds, and left at room temperature for 10 minutes. An ATP solution was prepared with an enzyme reaction buffer and 2 μl of the ATP solution was added to the reaction plate (the working concentration of ATP was 20 uM). The plate was sealed with a plate sealing film, centrifuged at 1000 g for 30 seconds, and reacted at room temperature for 60 minutes. 4 μL of ADP-Glu was transferred to a 384 reaction plate, centrifuged at 1000 rpm/min for 1 min, and incubated at 25° C. for 40 min. 8 μL of the Detection solution was transferred to a 384 reaction plate, centrifuged at 1000 rpm/min for 1 min, and incubated at 25° C. for 40 min. The RLU (Relative luminescence unit) signal was read using a BMG microplate reader, and the signal intensity was used to characterize the activity level of the kinase.
The kinase activity data was expressed by comparing the kinase activity of the test compound and the blank group (containing only DMSO), and the IC50 value was obtained by curve fitting using the Prism software (GraphPad7.0).
On the technique in general: ADP-Glo turns the ADP formed in a reaction into a luminescent signal.

This note sets out measurements from patent US20260116884A1, “PROTAC CHIMERIC COMPOUND, PREPARATION METHOD THEREFOR AND USE THEREOF” (HANGZHOU ZHONGMEIHUADONG PHARMACEUTICAL CO., LTD., priority 2022, published 2026).

T1 sequence (Q92918 whole entry): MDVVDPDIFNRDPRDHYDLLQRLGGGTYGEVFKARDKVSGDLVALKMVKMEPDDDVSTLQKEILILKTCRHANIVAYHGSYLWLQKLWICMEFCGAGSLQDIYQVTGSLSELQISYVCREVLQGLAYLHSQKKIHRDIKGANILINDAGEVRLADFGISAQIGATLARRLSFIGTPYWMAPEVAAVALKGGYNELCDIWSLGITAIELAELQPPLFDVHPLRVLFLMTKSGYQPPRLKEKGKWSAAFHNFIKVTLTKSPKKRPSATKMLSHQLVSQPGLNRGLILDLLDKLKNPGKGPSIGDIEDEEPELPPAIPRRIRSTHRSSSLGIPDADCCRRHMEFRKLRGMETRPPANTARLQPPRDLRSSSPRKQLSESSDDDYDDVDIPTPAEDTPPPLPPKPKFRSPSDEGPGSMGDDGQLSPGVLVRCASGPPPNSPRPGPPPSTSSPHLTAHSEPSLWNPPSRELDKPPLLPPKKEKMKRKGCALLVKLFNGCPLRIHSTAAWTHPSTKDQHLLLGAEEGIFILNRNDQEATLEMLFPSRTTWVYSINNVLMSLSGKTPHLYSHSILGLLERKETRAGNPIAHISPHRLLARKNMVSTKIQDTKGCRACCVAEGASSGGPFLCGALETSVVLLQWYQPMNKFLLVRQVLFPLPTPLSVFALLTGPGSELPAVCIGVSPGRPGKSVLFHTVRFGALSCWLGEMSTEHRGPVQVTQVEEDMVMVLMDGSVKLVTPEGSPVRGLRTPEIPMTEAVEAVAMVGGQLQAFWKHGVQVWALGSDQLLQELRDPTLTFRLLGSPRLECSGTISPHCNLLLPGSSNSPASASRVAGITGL

Regarding `CCN1CCC(n2cc(-c3c[nH]c4ncc(-c5ccc(N6CCC(OC7CCN(C(=O)c8ccc(Cl)c(N9CCC(=O)NC9=O)c8)CC7)CC6)c(C)c5)nc34)cn2)CC1` [Compound C132], the concentration for a half-maximal effect (EC50) – broadly, the concentration that produces a half-maximal response – in test [1] is 34.6 nM. In addition, at human HPK1 [2], half-maximal degradation (DC50) was put at 29.3 nM and the Dmax (as a rule, the largest share of the target that was removed) was 73%. On to `CCN1CCC(n2cc(-c3c[nH]c4ncc(-c5cnc(N6CCN(CC7CCN(C(=O)c8ccc(Cl)c(N9CCC(=O)NC9=O)c8)CC7)CC6)c(C)c5)nc34)cn2)CC1` [Compound C004], for which, on human HPK1 [3], half-maximal inhibition (IC50) required 1.6 nM.

Regarding `CCN1CCC(n2cc(-c3c[nH]c4ncc(-c5cnc(OCC(=O)Nc6ccc(NC7CCC(=O)NC7=O)cc6)c(F)c5)nc34)cn2)CC1` (centres unmarked) [Compound C008], the 50% inhibitory concentration (IC50) – broadly, the concentration that inhibits the measured activity by half – on human HPK1 [3] was found to be 3.5 nM. On the same count and under the same terms, in the case of `CCN1CCC(n2cc(-c3c[nH]c4ncc(-c5ccc(N6CCN(C7CC8(CCN(C(=O)c9ccc(Cl)c(N%10CCC(=O)NC%10=O)c9)CC8)C7)CC6)cc5)nc34)cn2)CC1` [Compound C030] it was 0.2 nM; in that of `CCN1CCC(n2cc(-c3c[nH]c4ncc(-c5cnc(OC6CN(C(=O)c7cccc(N8CCC(=O)NC8=O)c7)C6)c(C)c5)nc34)cn2)CC1` [Compound C015], 6.2 nM. Still for that read-out and setting: in the case of `CCN1CCC(n2cc(-c3c[nH]c4ncc(-c5cnc(N6CCN(CC7CN(C(=O)c8cccc(N9CCC(=O)NC9=O)c8)C7)CC6)c(C)c5)nc34)cn2)CC1` [Compound C011] it was 0.7 nM; in that of `CCN1CCC(n2cc(-c3c[nH]c4ncc(-c5cnc(OC6CCN(C(=O)c7cccc(N8CCC(=O)NC8=O)c7)CC6)c(C)c5)nc34)cn2)CC1` [Compound C019], 2 nM.

In turn, `CCN1CCC(n2cc(-c3c[nH]c4ncc(-c5ccc(N6CCC(OC7CCN(C(=O)c8ccc(Cl)c(N9CCC(=O)NC9=O)c8)CC7)CC6)c(F)c5)nc34)cn2)CC1` [Compound C134] gave an EC50 in test [1] of 41.7 nM. Further, on human HPK1 [2], it took 7.22 nM to reach half-maximal degradation (DC50) and the Dmax came out at 78%.

`CCN1CCC(n2cc(-c3c[nH]c4ncc(-c5ccc(OCCNC(=O)c6ccc(Cl)c(N7CCC(=O)NC7=O)c6)c(C)c5)nc34)cn2)CC1` [Compound C034] showed an IC50 against human HPK1 [3] of 1.2 nM. Still for that read-out and setting: in the case of `CCN1CCC(n2cc(-c3c[nH]c4ncc(-c5ccc(OCCNC(=O)c6ccc(Cl)c(N7CCC(=O)NC7=O)c6)nc5)nc34)cn2)CC1` [Compound C033] it was 7.5 nM; in that of `CCN1CCC(n2cc(-c3c[nH]c4ncc(-c5ccc(OC(C)CNC(=O)c6ccc(Cl)c(N7CCC(=O)NC7=O)c6)nc5)nc34)cn2)CC1` (centres unmarked) [Compound C044], 50.4 nM. With `CCN1CCC(n2cc(-c3c[nH]c4ncc(-c5ccc(OCCCNC(=O)c6ccc(Cl)c(N7CCC(=O)NC7=O)c6)c(C)c5)nc34)cn2)CC1` [Compound C039], at human HPK1 [3], the IC50 came to 1.4 nM. `CCN1CCC(n2cc(-c3c[nH]c4ncc(-c5ccc(N6CCN(C(=O)CCOCCNc7cccc8c7C(=O)N(C7CCC(=O)NC7=O)C8=O)CC6)nc5)nc34)cn2)CC1` (centres unmarked) [Compound C025] displayed an IC50 against human HPK1 [3] of 8.8 nM. In test [1], `CCN1CCC(n2cc(-c3c[nH]c4ncc(-c5ccc(N6CCC(C)(CN7CCN(C(=O)c8ccc(Cl)c(N9CCC(=O)NC9=O)c8)CC7)CC6)cc5)nc34)cn2)CC1` [Compound C139] registered an EC50 of 104 nM. Moreover, at human HPK1 [2], the 50% degradation concentration (DC50) (as a rule, the midpoint of the concentration-degradation curve) worked out at 52.4 nM and the greatest degradation seen (Dmax) is 80.9%. The compound `CCN1CCC(n2cc(-c3c[nH]c4ncc(-c5ccc(OCCN6CCC(NC(=O)c7ccc(Cl)c(N8CCC(=O)NC8=O)c7)CC6)nc5)nc34)cn2)CC1` [Compound C023] had an IC50 on human HPK1 [3] of 6.4 nM. Same read-out and setting: the same measure for `CCN1CCC(n2cc(-c3c[nH]c4ncc(-c5ccc(OCCNC(=O)c6ccc(Cl)c(N7CCC(=O)NC7=O)c6)cc5)nc34)cn2)CC1` [Compound C035]: 2.5 nM.

As to `CCN1CCC(n2cc(-c3c[nH]c4ncc(-c5ccc(N6CCN(CC7CCN(C(=O)c8ccc(Cl)c(N9CCC(=O)NC9=O)c8)CC7)CC6)nc5)nc34)cn2)CC1` [Compound C020], at human HPK1 [3], the IC50 amounted to 5.5 nM.

On human HPK1 [3], `CCN1CCC(n2cc(-c3c[nH]c4ncc(-c5ccc(OCCCNC(=O)c6cccc(N7CCC(=O)NC7=O)c6)c(C)c5)nc34)cn2)CC1` [Compound C042] had an IC50 of 2.1 nM. As to `CCN1CCC(n2cc(-c3c[nH]c4ncc(-c5ccc(N6CCN(C7CCC(NC(=O)c8ccc(Cl)c(N9CCC(=O)NC9=O)c8)CC7)CC6)cc5)nc34)cn2)CC1` (centres unmarked) [Compound C029], at human HPK1 [3], the IC50 worked out at 1.6 nM.

The compound `CCN1CCC(n2cc(-c3c[nH]c4ncc(-c5cnc(OC(C)CNC(=O)c6ccc(Cl)c(N7CCC(=O)NC7=O)c6)c(C)c5)nc34)cn2)CC1` (centres unmarked) [Compound C043] returned an IC50 against human HPK1 [3] of 27.8 nM. Consider `CCN1CCC(n2cc(-c3c[nH]c4ncc(-c5ccc(N6CCC(CC7CCCN(C(=O)c8ccc(Cl)c(N9CCC(=O)NC9=O)c8)CC7)CC6)cc5)nc34)cn2)CC1` (centres unmarked) [Compound C122], for which the response in test [1] was half-maximal at 59.9 nM (EC50). In turn, `CCN1CCC(n2cc(-c3c[nH]c4ncc(-c5ccc(OCC(C)(C)CNC(=O)c6ccc(Cl)c(N7CCC(=O)NC7=O)c6)nc5)nc34)cn2)CC1` [Compound C041] registered a concentration for half-maximal inhibition (IC50) on human HPK1 [3] of 14.6 nM.

As to `CCN1CCC(n2cc(-c3c[nH]c4ncc(-c5ccc(OCCNC6CCC(NC(=O)c7ccc(Cl)c(N8CCC(=O)NC8=O)c7)CC6)nc5)nc34)cn2)CC1` (centres unmarked) [Compound C028], at human HPK1 [3], half-maximal inhibition (IC50) required 2.4 nM.

Turning to `CCN1CCC(n2cc(-c3c[nH]c4ncc(-c5cnc(N6CCN(C(=O)c7ccc(N8CCC(=O)NC8=O)cc7)CC6)c(C)c5)nc34)cn2)CC1` [Compound C001], on human HPK1 [3], the IC50 came out at 5.2 nM. Still for that read-out and setting: the same measure for `CCN1CCC(n2cc(-c3c[nH]c4ncc(-c5cnc(NCCNC(=O)c6cccc(N7CCC(=O)NC7=O)c6)c(C)c5)nc34)cn2)CC1` [Compound C009]: 8.8 nM; for `CCN1CCC(n2cc(-c3c[nH]c4ncc(-c5cnc(OCC(=O)N6CCC(c7ccc(NC8CCC(=O)NC8=O)cc7)CC6)c(C)c5)nc34)cn2)CC1` (centres unmarked) [Compound C007]: 5.2 nM.

In turn, `CCN1CCC(n2cc(-c3c[nH]c4ncc(-c5cnc(OC6CCN(C(=O)c7cccc(N8CCC(=O)NC8=O)c7)CC6)c(C)c5)nc34)cn2)CC1` [Compound C014] displayed a 50% inhibitory concentration (IC50) against human HPK1 [3] of 1.5 nM. On to `CCN1CCC(n2cc(-c3c[nH]c4ncc(-c5ccc(N6CCN(C(=O)CCCCCNc7cccc8c7C(=O)N(C7CCC(=O)NC7=O)C8=O)CC6)nc5)nc34)cn2)CC1` (centres unmarked) [Compound C026], for which 1.6 nM corresponded to half-maximal inhibition against human HPK1 [3] (IC50). Same read-out and setting: in the case of `CCN1CCC(n2cc(-c3c[nH]c4ncc(-c5cnc(N6CCN(CC7CN(c8cccc9c8C(=O)N(C8CCC(=O)NC8=O)C9=O)C7)CC6)c(C)c5)nc34)cn2)CC1` (centres unmarked) [Compound C012] it was 1.9 nM. As to `CCN1CCC(n2cc(-c3c[nH]c4ncc(-c5cnc(N6CCN(CC7CCN(C(=O)c8cccc(N9CCC(=O)NC9=O)c8)CC7)CC6)c(C)c5)nc34)cn2)CC1` [Compound C002], the concentration for half-maximal inhibition (IC50) against human HPK1 [3] was 2.6 nM. Same read-out and setting: the same measure for `CCN1CCC(n2cc(-c3c[nH]c4ncc(-c5cnc(OCCN(C)C(=O)c6ccc(Cl)c(N7CCC(=O)NC7=O)c6)c(C)c5)nc34)cn2)CC1` [Compound C045]: 5.1 nM. Same read-out and setting: the same measure for `CCN1CCC(n2cc(-c3c[nH]c4ncc(-c5cnc(OCCNC(=O)c6cccc(N7CCC(=O)NC7=O)c6)c(C)c5)nc34)cn2)CC1` [Compound C016]: 15 nM.
